Here are results for eight compounds from publication PMC4199632, “Exploring the Anti-Cancer Activity of Novel Thiosemicarbazones Generated through the Combination of Retro-Fragments: Dissection of Critical Structure-Activity Relationships” (PLoS ONE, 2014).

The nature of assay [1]: Ascorbate oxidation assay (iron complexes). It is filed as biochemical. The following applies: iron complex; for Ascorbate oxidation (% of the control): FeIII 10 µM, ascorbate 100 µM. As for the experimental part: The ability of the iron complexes of the novel ligands to mediate the oxidation of the physiological substrate, ascorbate, was examined using established methods, [18], [22], [52], [53]. Ascorbic acid (100 µM) was prepared immediately prior to each experiment and was incubated in the presence of Fe^III (10 µM; as FeCl3), the chelator (1–60 µM) and a 50-fold molar excess of citrate (500 µM). The absorbance at 265 nm was measured after 10 and 40 min and the difference in absorbance at these time points was calculated. The results of these experiments were expressed as iron-binding equivalents (IBE) due to the different denticity of the chelators examined. The chelators, Dp44mT, DFO and ethylenediaminetetraacetic acid (EDTA) were used as controls as the ability of their iron complexes to oxidize ascorbate has been extensively characterized, [15], [52], [53].
The ability of the iron complexes of the novel TSCs to catalyze the oxidation of the physiological substrate, ascorbate, was important to assess as redox cycling may play a critical role in their anti-proliferative activity, [15], [18], [52], [53]. Thus, the oxidation of ascorbate mediated by the iron complexes of series 1–6 were examined in comparison to the iron complexes of the control compounds, DFO, EDTA and Dp44mT, as the ability of the latter to oxidize ascorbate is well characterized, [15], [52], [53], [68]. The results were expressed as a percentage of the control (no chelator) at iron-binding equivalents (IBEs) of 0.1 (excess “free” iron), 1 (iron-chelator complexes with a fully filled coordination sphere), or 3 (excess free chelator), due to the different denticity of the chelators examined (Fig. 10).
Figure 10 Effect of the iron complexes of (A) series 1, (B) series 2, (C) series 3, (D) series 4, (E) series 5 and (F) series 6 chelators, relative to DFO, Dp44mT and EDTA, on ascorbate oxidation. Chelators at iron-binding equivalent (IBE) ratios of 0.1, 1, and 3 were incubated in the presence of Fe^III (10 µM) and ascorbate (100 µM). The UV-Vis absorbance at 265 nm was recorded after 10 and 40 min, and the difference between the time points was calculated. Results are mean ±SD (3 experiments).

Assay [2] concerns HCT116 p53+/+ colon cancer cells. In words: Proliferation assay (MTS, 96 h). The class given is cell-based, human. The following applies: for IC50: Homo sapiens, HCT-116, 96 h incubation, MTS, mean ±SD (3 experiments); for Therapeutic index NHDF vs. HCT116 p53+/+: NHDF cell IC50 divided by HCT116 p53+/+ IC50. Summed up: (§1)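 HCT116 p53+/+, HCT116 p53−/− and NHDF cells were seeded 24 h before a 96 h compound exposure at 37 °C, with final DMSO <0.05%. Viability was read by MTS absorbance at 490 nm after 1 h; IC50 was the concentration reducing absorbance to 50% of untreated control.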

Assay [3] deals with HCT116 p53−/− colon cancer cells. In words: Proliferation assay (MTS, 96 h). It is filed as cell-based, human. To be noted: for IC50: Homo sapiens, HCT-116, 96 h, 96 h incubation, MTS, mean ±SD (3 experiments); for Therapeutic index NHDF vs. HCT116 p53−/−: NHDF cell IC50 divided by HCT116 p53−/− IC50. The gist of the method: as §1
Assay [4] relates to SK-N-MC neuroepithelioma cells. The assay is described as follows: Proliferation assay (MTT, 72 h). The class given is cell-based. To be noted: Homo sapiens, 72 h incubation, mean ±SD (3 experiments). Summed up: (§2)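 Cells seeded 24 h before treatment, then exposed at 37 °C for 72 h (SK-N-MC, Raji, HeLa) or 96 h (HCT116, NHDF); final DMSO <0.05%. Read-outs: MTT at 570 nm (SK-N-MC, Raji), crystal violet at 595 nm (HeLa), MTS at 490 nm (HCT116, NHDF); IC50 is 50% absorbance versus untreated control, triplicates repeated three times.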

Assay [5] deals with Raji Burkitt's lymphoma cells. In words: Proliferation assay (MTT, 72 h). It is filed as cell-based. The following applies: Homo sapiens, 72 h incubation, mean ±SD (3 experiments). The gist of the method:
as §2

As for `CC(=O)N(O)CCCCCNC(=O)CCC(=O)N(O)CCCCCNC(=O)CCC(=O)N(O)CCCCCN` [DFO, desferrioxamine, reference compound], the “Ascorbate oxidation (% of the control)” value in assay [1] (IBE 1) was 47%; in assay [1] (IBE 3) it was 23%. Moreover, the IC50 in assay [2] is more than 25000 nM; in assay [3], more than 25000 nM; in assay [4] it was 15100 ± 5200 nM; in assay [5] it was 4740 ± 1800 nM.

As to `CN(C(=S)N/N=C/c1ccccc1O)C1CCCCC1` [6f], the “Ascorbate oxidation compared with controls” value in assay [1] (IBE 3) is reported as “decreased ascorbate oxidation relative to the control”. For the same compound, the IC50 is more than 25000 nM in assay [2], more than 25000 nM in assay [3], more than 6250 nM in assay [4] and 690 ± 510 nM in assay [5].

Regarding `S=C(N/N=C/c1ccc2ccccc2n1)N1CCN(c2ccccc2)CC1` [2b], the IC50 in assay [2] is 42 ± 3 nM; in assay [3] it was 90 ± 40 nM; in assay [4] it was 330 ± 20 nM; in assay [5], 40 ± 10 nM. The “Therapeutic index NHDF vs. HCT116 p53+/+” value in assay [2] worked out at 0.8. The “Therapeutic index NHDF vs. HCT116 p53−/−” value in assay [3] is recorded as 0.4.

With `CN(C(=S)N/N=C/c1ccc2ccccc2n1)C1CCCCC1` [2f], the IC50 in assay [2] is 26 ± 1 nM; in assay [3] it was 35 ± 3 nM; in assay [4], 820 ± 190 nM; in assay [5] it was 810 ± 100 nM. Moreover, in assay [2], the “Therapeutic index NHDF vs. HCT116 p53+/+” value was 0.6. Further, the “Therapeutic index NHDF vs. HCT116 p53−/−” value in assay [3] is listed as 0.4.

As for `S=C(NN=C(c1ccccn1)c1ccccn1)N1CCN(c2cnccn2)CC1` [1e], the “Ascorbate oxidation (% of the control)” value in assay [1] (IBE 3) was 200–265%. Moreover, the half-inhibitory concentration (IC50) in assay [2] is 38 ± 3 nM; in assay [3] it was 31 ± 3 nM; in assay [4] it was 70 ± 50 nM; in assay [5] it was 40 ± 20 nM.

Regarding `CN(C(=S)N/N=C/c1cnc2ccccc2n1)C1CCCCC1` [5f], the “Ascorbate oxidation compared with controls” value in assay [1] (IBE 3) was “decreased ascorbate oxidation relative to the control”. For the same compound, the IC50 in assay [2] amounted to 1240 ± 450 nM; in assay [3], 1020 ± 540 nM; in assay [4], 2040 ± 340 nM; in assay [5], 720 ± 290 nM.

For `CN(C)C(=S)NN=C(c1ccccn1)c1ccccn1` [Dp44mT, di-2-pyridylketone 4,4-dimethyl-3-thiosemicarbazone, reference compound], the “Ascorbate oxidation (% of the control)” value in assay [1] (IBE 0.1) is recorded as 129%; in assay [1] (IBE 1) it was 203%; in assay [1] (IBE 3), 196%. For the same compound, the IC50 was 2 ± 1 nM in assay [2], 5 ± 2 nM in assay [3], 12 ± 1 nM in assay [4] and 7 ± 1 nM in assay [5]. In addition, the “Therapeutic index NHDF vs. HCT116 p53+/+” value in assay [2] was 7690. The “Therapeutic index NHDF vs. HCT116 p53−/−” value in assay [3] worked out at 3076.

Turning to `CCN1CCN(C(=S)N/N=C/c2ccc3ccccc3n2)CC1` [2a], in assay [1] (IBE 3), the “Ascorbate oxidation (% of the control)” value is 200–265%. The IC50 in assay [2] worked out at 1440 ± 690 nM; in assay [3] it was 3550 ± 1230 nM; in assay [4], 2540 ± 860 nM; in assay [5] it was 60 ± 20 nM.

One may read the IC50 as the point on the concentration scale where inhibition reaches its midpoint.
